Laboratory results from US20250304623A1, “PEPTIDES FOR INTRACELLULAR DELIVERY” (UNIVERSIDADE DE SANTIAGO DE COMPOSTELA, priority 2022, published 2025).
*: point of attachment. NHNH2 = NN*

Experiments:
Format in all cases: cell-based
[1] = system: A549 cells; assay: EGFP mRNA delivery, robotic library screening, A549
In short: (§1)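 Transfection used amphiphile at final 2.5, 5 or 10 μM with EGFP mRNA (25 ng/well) for 4 h without serum, then medium with 10% FBS. Plate-reader EGFP signal at 72 h, untreated background removed, mean of triplicates.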

[2] = system: ARPE19 cells; assay: EGFP mRNA delivery, robotic library screening, ARPE19
In short: as §1

[3] = system: HCT116 cells; assay: EGFP mRNA delivery, robotic library screening, HCT116
In short: as §1

[4] = system: Hek293 cells; assay: EGFP mRNA delivery, robotic library screening, Hek293
In short: as §1

[5] = system: ARPE19 cells expressing EGFP; assay: EGFP-targeting siRNA delivery (GFP silencing vs siMOCK), ARPE19
In short: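 This siRNA delivery assay used stably EGFP-expressing cells seeded a day ahead in 96-well plates. siGFP and amphiphile were combined in DMEM at a constant 30 nM siRNA, incubated 30 min at room temperature, then applied for 4 h before switching to fresh DMEM with 10% FBS. After 72 h, a plate reader measured fluorescence decrease relative to non-targeting siMOCK, subtracting untreated background.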

Substance | mean fluorescence intensity (EGFP mRNA) ([1]; Dodecanal, 2.5 μM) | mean fluorescence intensity (EGFP mRNA) ([1]; Myristoleyl, 5 μM) | mean fluorescence intensity (EGFP mRNA) ([1]; Myristoleyl, 10 μM) | mean fluorescence intensity (EGFP mRNA) ([1]; Petroselinyl, 2.5 μM) | mean fluorescence intensity (EGFP mRNA) ([1]; Petroselinyl, 5 μM) | mean fluorescence intensity (EGFP mRNA) ([1]; Petroselinyl, 10 μM) | mean fluorescence intensity (EGFP mRNA) ([2]; Petroselinyl, 5 μM) | mean fluorescence intensity (EGFP mRNA) ([2]; Petroselinyl, 10 μM) | mean fluorescence intensity (EGFP mRNA) ([3]; Myristoleyl, 2.5 μM) | mean fluorescence intensity (EGFP mRNA) ([3]; Petroselinyl, 5 μM) | mean fluorescence intensity (EGFP mRNA) ([3]; Petroselinyl, 10 μM) | mean fluorescence intensity (EGFP mRNA) ([4]; Petroselinyl, 2.5 μM) | mean fluorescence intensity (EGFP mRNA) ([4]; Petroselinyl, 5 μM) | mean fluorescence intensity (EGFP mRNA) ([4]; Petroselinyl, 10 μM) | percentage of GFP-silencing relative to siMOCK ([5]; Dodecanal, 5 μM) [%] | percentage of GFP-silencing relative to siMOCK ([5]; Dodecanal, 10 μM) [%] | percentage of GFP-silencing relative to siMOCK ([5]; Dodecanal, 15 μM) [%] | percentage of GFP-silencing relative to siMOCK ([5]; Palmitoleyl, 10 μM) [%] | percentage of GFP-silencing relative to siMOCK ([5]; Petroselinyl, 10 μM) [%] | percentage of GFP-silencing relative to siMOCK ([5]; Petroselinyl, 15 μM) [%] | also measured
Ac-RRHK*RLK*RRLK*RL-NH2 (Ac-RRHK(NHNH2)RLK(NHNH2)RRLK(NHNH2)RL-NH2; not fully specified; printed as Ac-RRHK*RLK*RRLK*RL-NH2; also: K*4,K*7,K*11: native or modified lysine (ε-amide to a linker)) [13(Leu-His)] | 2133 | 370 | 569 | 1141 | 437 | 245 | 318 | 419 | 2385 | 428 | 149 | 629 | −150 | −168 | 27 | 31 | 41 | 26 | 34 | 13 | mean fluorescence intensity (EGFP mRNA) ([1]; Dodecanal, 5 μM): 803; mean fluorescence intensity (EGFP mRNA) ([1]; Dodecanal, 10 μM): 170; mean fluorescence intensity (EGFP mRNA) ([1]; Myristoleyl, 2.5 μM): 882; mean fluorescence intensity (EGFP mRNA) ([1]; Palmitoleyl, 2.5 μM): 1406; mean fluorescence intensity (EGFP mRNA) ([1]; Palmitoleyl, 5 μM): 916; mean fluorescence intensity (EGFP mRNA) ([1]; Palmitoleyl, 10 μM): 617; mean fluorescence intensity (EGFP mRNA) ([3]; Palmitoleyl, 5 μM): 642; mean fluorescence intensity (EGFP mRNA) ([4]; Palmitoleyl, 2.5 μM): 4730; mean fluorescence intensity (EGFP mRNA) ([4]; Palmitoleyl, 5 μM): 1141; percentage of GFP-silencing relative to siMOCK ([5]; Myristoleyl, 10 μM): 25%; percentage of GFP-silencing relative to siMOCK ([5]; Myristoleyl, 15 μM): 0%; percentage of GFP-silencing relative to siMOCK ([5]; Oleyl, 10 μM): 26%; percentage of GFP-silencing relative to siMOCK ([5]; Oleyl, 15 μM): 15%; percentage of GFP-silencing relative to siMOCK ([5]; Palmitoleyl, 5 μM): 46%; percentage of GFP-silencing relative to siMOCK ([5]; Palmitoleyl, 15 μM): 24%
Ac-RRLK*RLK*RRLK*RL-NH2 [Peptide 13.3] | 298 | 170 | 240 | 245 | 117 | 107 | 828 | 1310 | 2744 | 1100 | 824 | 768 | 1046 | 964 | 29 | 51 | 37 | 11 | 13 | −42 | mean fluorescence intensity (EGFP mRNA) ([1]; Oleyl, 2.5 μM): 214; mean fluorescence intensity (EGFP mRNA) ([2]; Dodecanal, 5 μM): 1162; mean fluorescence intensity (EGFP mRNA) ([2]; Dodecanal, 10 μM): 1636; mean fluorescence intensity (EGFP mRNA) ([2]; Myristoleyl, 2.5 μM): 1787; mean fluorescence intensity (EGFP mRNA) ([2]; Myristoleyl, 5 μM): 1055; mean fluorescence intensity (EGFP mRNA) ([2]; Myristoleyl, 10 μM): 1763; mean fluorescence intensity (EGFP mRNA) ([2]; Petroselinyl, 2.5 μM): 1485; mean fluorescence intensity (EGFP mRNA) ([3]; Palmitoleyl, 2.5 μM): 1623; mean fluorescence intensity (EGFP mRNA) ([3]; Petroselinyl, 2.5 μM): 1178; mean fluorescence intensity (EGFP mRNA) ([4]; Dodecanal, 10 μM): 695; mean fluorescence intensity (EGFP mRNA) ([4]; Myristoleyl, 2.5 μM): 1316; mean fluorescence intensity (EGFP mRNA) ([4]; Myristoleyl, 5 μM): 1229; mean fluorescence intensity (EGFP mRNA) ([4]; Myristoleyl, 10 μM): 889; mean fluorescence intensity (EGFP mRNA) ([4]; Oleyl, 2.5 μM): 1384; mean fluorescence intensity (EGFP mRNA) ([4]; Oleyl, 5 μM): 853; percentage of GFP-silencing relative to siMOCK ([5]; Petroselinyl, 5 μM): 11%
